US5326867A, “Pradimic acids, amides, and pradimicin derivatives” (Bristol-Myers Squibb Company, priority 1992, dated 1994)
Converted amounts (≈) assume the structure as drawn.

Key:
Format in all cases: cell-based
[1] = system: Cryptococcus neoformans; assay: In vitro antifungal activity, MIC by serial agar dilution method; details: Sabouraud dextrose agar, 10^6 cells/ml, 40 hours at 28° C.
Protocol: (§1) Antifungal activities of representative compounds of the present invention were evaluation in vitro. The minimum inhibitory concentrations (MICs) against various fungi were determined by serial agar dilution method using Sabouraud dextrose agar. Thus, approximately 0.003 ml of fungal suspension containing 10^6 cells/ml was applied to the surface of agar plates containing the test antibiotics.

[2] = system: Trichophyton mentagrophytes; assay: as above; details: Sabouraud dextrose agar, 10^6 cells/ml, 40 hours at 28° C.
Protocol: as §1

[3] = system: Aspergillus fumigatus; assay: as above; details: Sabouraud dextrose agar, 10^6 cells/ml, 40 hours at 28° C.
Protocol: as §1

[4] = system: Candida albicans; assay: as above; details: Sabouraud dextrose agar, 10^6 cells/ml, 40 hours at 28° C.
Protocol: as §1

[5] = system: fungi; assay: Antifungal activity of synthesized pradimicin A compared with naturally occurring pradimicin A; details: semisynthetic product of Example 12 vs naturally occurring pradimicin A

Compound	MIC [1] [µg/mL]	MIC [2] [µg/mL]	MIC [3] [µg/mL]	MIC [4] [µg/mL]	antifungal activity [5]
CN[C@@H]1[C@H](O[C@@H]2OC[C@@H](O)[C@H](O)[C@H]2O)[C@@H](O)[C@H](O[C@H]2c3cc(C)c(C(=O)NC(C(=O)O)C(F)(F)F)c(O)c3-c3c(cc4c(c3O)C(=O)c3cc(OC)cc(O)c3C4=O)[C@@H]2O)O[C@@H]1C (stereo partly drawn) [Example 17]	3.1 (≈ 3.46 µM)	> 100	50 (≈ 55.9 µM)	> 100	–
CN[C@@H]1[C@H](O[C@@H]2OC[C@@H](O)[C@H](O)[C@H]2O)[C@@H](O)[C@H](O[C@H]2c3cc(C)c(C(=O)N[C@H](C)C(=O)O)c(O)c3-c3c(cc4c(c3O)C(=O)c3cc(OC)cc(O)c3C4=O)[C@@H]2O)O[C@@H]1C [pradimicin A]	–	–	–	–	identical to naturally occurring pradimicin A in spectroscopic data (NMR, IR, UV), HPLC and antifungal activity
CN[C@@H]1[C@H](O[C@@H]2OC[C@@H](O)[C@H](O)[C@H]2O)[C@@H](O)[C@H](O[C@H]2c3cc(C)c(C(=O)NCc4nnn[nH]4)c(O)c3-c3c(cc4c(c3O)C(=O)c3cc(OC)cc(O)c3C4=O)[C@@H]2O)O[C@@H]1C [Example 20]	3.1 (≈ 3.64 µM)	3.1 (≈ 3.64 µM)	3.1 (≈ 3.64 µM)	6.3 (≈ 7.4 µM)	–
CN[C@@H]1[C@H](O[C@@H]2OC[C@@H](O)[C@H](O)[C@H]2O)[C@@H](O)[C@H](O[C@H]2c3cc(C)c(C(=O)N[C@H](Cc4ccccc4)C(=O)O)c(O)c3-c3c(cc4c(c3O)C(=O)c3cc(OC)cc(O)c3C4=O)[C@@H]2O)O[C@@H]1C [Example 18]	1.6 (≈ 1.75 µM)	12.5 (≈ 13.6 µM)	6.3 (≈ 6.87 µM)	> 100	–
CN[C@@H]1[C@H](O[C@@H]2OC[C@@H](O)[C@H](O)[C@H]2O)[C@@H](O)[C@H](O[C@H]2c3cc(C)c(C(=O)N[C@H](Cc4ccc(O)c(O)c4)C(=O)O)c(O)c3-c3c(cc4c(c3O)C(=O)c3cc(OC)cc(O)c3C4=O)[C@@H]2O)O[C@@H]1C [Example 13, 15-Desalanyl-15-[D-(3,4-dihydroxyphenyl)alanyl] pradimicin A]	25 (≈ 26.3 µM)	50 (≈ 52.7 µM)	> 50	> 50	–
CCNC(=O)SC[C@@H](NC(=O)c1c(C)cc2c(c1O)-c1c(cc3c(c1O)C(=O)c1cc(OC)cc(O)c1C3=O)[C@H](O)[C@H]2O[C@@H]1O[C@H](C)[C@H](NC)[C@H](O[C@@H]2OC[C@@H](O)[C@H](O)[C@H]2O)[C@H]1O)C(=O)O [Example 23]	3.1 (≈ 3.28 µM)	12.5 (≈ 13.2 µM)	3.1 (≈ 3.28 µM)	25 (≈ 26.5 µM)	–
CN[C@@H]1[C@H](O[C@@H]2OC[C@@H](O)[C@H](O)[C@H]2O)[C@@H](O)[C@H](O[C@H]2c3cc(C)c(C(=O)N[C@H](Cc4cnc[nH]4)C(=O)O)c(O)c3-c3c(cc4c(c3O)C(=O)c3cc(OC)cc(O)c3C4=O)[C@@H]2O)O[C@@H]1C [Example 19]	12.5 (≈ 13.8 µM)	12.5 (≈ 13.8 µM)	50 (≈ 55.1 µM)	> 50	–

The next lines start with results.

MIC [1] [µg/mL]	MIC [2] [µg/mL]	MIC [3] [µg/mL]	MIC [4] [µg/mL]	Compound	antifungal activity [5]
6.3 (≈ 7.12 µM)	12.5 (≈ 14.1 µM)	50 (≈ 56.5 µM)	12.5 (≈ 14.1 µM)	CN[C@@H]1[C@H](O[C@@H]2OC[C@@H](O)[C@H](O)[C@H]2O)[C@@H](O)[C@H](O[C@H]2c3cc(C)c(C(=O)N[C@H](CC(=O)O)C(=O)O)c(O)c3-c3c(cc4c(c3O)C(=O)c3cc(OC)cc(O)c3C4=O)[C@@H]2O)O[C@@H]1C [Example 16]	–
12.5 (≈ 14.6 µM)	> 100	> 100	12.5 (≈ 14.6 µM)	CN[C@@H]1[C@H](O[C@@H]2OC[C@@H](O)[C@H](O)[C@H]2O)[C@@H](O)[C@H](O[C@H]2c3cc(C)c(C(=O)N[C@@H](CO)C(=O)O)c(O)c3-c3c(cc4c(c3O)C(=O)c3cc(OC)cc(O)c3C4=O)[C@@H]2O)O[C@@H]1C [Example 14]	–
6.3 (≈ 7.34 µM)	12.5 (≈ 14.6 µM)	12.5 (≈ 14.6 µM)	12.5 (≈ 14.6 µM)	COc1cc(O)c2c(c1)C(=O)c1c(cc3c(c1O)-c1c(cc(C)c(C(=O)N[C@@H](C(=O)O)[C@H](C)O)c1O)[C@H](O[C@@H]1O[C@H](C)[C@H](O)[C@H](O[C@@H]4OC[C@@H](O)[C@H](O)[C@H]4O)[C@H]1O)[C@H]3O)C2=O [Example 27, 15-Desalanyl-15-(D-threonyl) -4'-desmethylamino-4'-hydroxypradimicin A]	–
50 (≈ 59.3 µM)	> 100	> 100	12.5 (≈ 14.8 µM)	COc1cc(O)c2c(c1)C(=O)c1c(cc3c(c1O)-c1c(cc(C)c(C(=O)N[C@@H](CO)C(=O)O)c1O)[C@H](O[C@@H]1O[C@H](C)[C@H](O)[C@H](O[C@@H]4OC[C@@H](O)[C@H](O)[C@H]4O)[C@H]1O)[C@H]3O)C2=O [Example 30]	–
3.1 (≈ 3.17 µM)	12.5 (≈ 12.8 µM)	6.3 (≈ 6.44 µM)	6.3 (≈ 6.44 µM)	COc1cc(O)c2c(c1)C(=O)c1c(cc3c(c1O)-c1c(cc(C)c(C(=O)N[C@H](CSSC[C@@H](N)C(=O)O)C(=O)O)c1O)[C@H](O[C@@H]1O[C@H](C)[C@H](O)[C@H](O[C@@H]4OC[C@@H](O)[C@H](O)[C@H]4O)[C@H]1O)[C@H]3O)C2=O [Example 29]	–
6.3 (≈ 7.02 µM)	6.3 (≈ 7.02 µM)	6.3 (≈ 7.02 µM)	25 (≈ 27.8 µM)	CN[C@@H]1[C@H](O[C@@H]2OC[C@@H](O)[C@H](O)[C@H]2O)[C@@H](O)[C@H](O[C@H]2c3cc(C)c(C(=O)N[C@H](CCCCN)C(=O)O)c(O)c3-c3c(cc4c(c3O)C(=O)c3cc(OC)cc(O)c3C4=O)[C@@H]2O)O[C@@H]1C [Example 21]	–
6.3 (≈ 7.36 µM)	6.3 (≈ 7.36 µM)	6.3 (≈ 7.36 µM)	25 (≈ 29.2 µM)	CN[C@@H]1[C@H](O[C@@H]2OC[C@@H](O)[C@H](O)[C@H]2O)[C@@H](O)[C@H](O[C@H]2c3cc(C)c(C(=O)N[C@H](CN)C(=O)O)c(O)c3-c3c(cc4c(c3O)C(=O)c3cc(OC)cc(O)c3C4=O)[C@@H]2O)O[C@@H]1C [Example 15]	–
3.1 (≈ 3.75 µM)	3.1 (≈ 3.75 µM)	3.1 (≈ 3.75 µM)	6.3 (≈ 7.61 µM)	COc1cc(O)c2c(c1)C(=O)c1c(cc3c(c1O)-c1c(cc(C)c(C(=O)N[C@H](C)C(=O)O)c1O)[C@H](O[C@@H]1O[C@H](C)[C@H](O)[C@H](O[C@@H]4OC[C@@H](O)[C@H](O)[C@H]4O)[C@H]1O)[C@H]3O)C2=O [Example 31]	–
